Test system: PDX model FHSC04
Assay: RNA-seq PD gene change in SCLC PDX model FHSC04 treated in vivo
Parameters: species or system mice
Details: 400 μg/kg oral gavage
Method: To confirm the results obtained for small cell lung cancer cell line xenograft, changes in PD markers Notch1, ASCL1 and GRP were evaluated in PDX model FHSC04 treated in vivo with LSD1i (trans)-N1-((1R,2S)-2-phenylcyclopropyl)cyclohexane-1,4-diamine (FIG. 13). Eight to twelve-week-old NOD scid gamma mice were implanted with 1.0×10^6 disaggregated cells from PDX model FHSC04 in 100 μl of 1:1 HITES media:Matrigel. […] Once tumor volume reached 150-200 mm^3, mice were randomly assigned to treatment groups for 21-35 days, depending on the kinetics of growth in the given model. Animals were treated with saline or with 400 μg/kg ((trans)-N1-((1R,2S)-2-phenylcyclopropyl)cyclohexane-1,4-diamine, delivered by oral gavage once every 7 days, dissolved to 10 ml/kg with 0.9% saline solution. For the 10-day treatment in FHSC04 used for molecular analyses, an additional dose of 400 μg/kg (trans)-N1-((1R,2S)-2-phenylcyclopropyl)cyclohexane-1,4-diamine was given 4 hours before tissue collection.
For RNA-seq analyses using PDX samples in vivo, the Ultra RNA Library Prep Kit for Illumina (New England BioLabs; catalog E753L) was used to generate libraries from total RNA. All library preparation was conducted according to the manufacturer's instructions. Single-end sequencing (50 bp) was performed using an Illumina HiSeq 2500, reads of low quality were filtered prior to alignment to the hg19 genome build using TopHat v2.0.12 (Trapnell et al. Bioinformatics 2009 May 1; 25(9): 1105-1111). In vivo PDX samples were also aligned to mm9, where the mouse and human alignments from a given sample were compared, discarding from downstream analysis those reads which had fewer mismatches to mouse, relative to human. Cuffdiff v2.1.1 (Trapnell et al. Nat Biotechnol. 2013 January; 31(1):46-53) was used to generate fragment per kilobase per million (FPKM) expression values. Counts (CPM) were generated from TopHat alignments using the Python package HTSeq v0.6.1 (Anders et al. Bioinformatics. 2015 Jan. 15; 31(2): 166-169) using the “intersection-strict” overlap mode. […]

Question: How did the “ASCL1 transcript regulation (FIG. 13)” value turn out when `N[C@H]1CC[C@H](N[C@@H]2C[C@H]2c2ccccc2)CC1` [RG6016, (trans)-N1-((1R,2S)-2-phenylcyclopropyl)cyclohexane-1,4-diamine] was run?
Answer: The value was “down regulation”.

Question: And the “GRP transcript regulation (FIG. 13)” value?
Answer: Its value is “down regulation”.

Question: What about the “NOTCH1 transcript regulation (FIG. 13)” value of the same molecule?
Answer: The value was “up regulation”.

Reference: US20190256929A1, “PHARMACODYNAMIC BIOMARKERS FOR PERSONALIZED CANCER CARE USING EPIGENETIC MODIFYING AGENTS” (ORYZON GENOMICS, S.A., priority 2016, published 2019)
